PMC6450558 (Angewandte Chemie (International ed. in English), 2019)

Target: T1, human ST6Gal-I (Homo sapiens, UniProt P15907)
T1 sequence (P15907 1-406): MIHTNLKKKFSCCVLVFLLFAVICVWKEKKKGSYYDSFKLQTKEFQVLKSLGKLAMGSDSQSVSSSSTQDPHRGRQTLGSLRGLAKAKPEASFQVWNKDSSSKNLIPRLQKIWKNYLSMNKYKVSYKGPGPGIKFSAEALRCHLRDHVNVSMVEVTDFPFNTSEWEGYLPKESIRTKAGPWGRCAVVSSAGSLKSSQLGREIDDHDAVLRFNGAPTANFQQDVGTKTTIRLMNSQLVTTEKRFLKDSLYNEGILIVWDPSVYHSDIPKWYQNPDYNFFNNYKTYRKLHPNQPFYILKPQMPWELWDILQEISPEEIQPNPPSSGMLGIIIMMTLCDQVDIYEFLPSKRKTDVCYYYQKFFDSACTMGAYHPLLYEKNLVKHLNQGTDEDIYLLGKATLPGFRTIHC
Experiment: sialyltransferase kinetics, donor varied
Format: biochemical
Settings: read-out: ST6Gal-I / KM(app); acceptor LacNAc-butyl (11), fixed concentration

Km: 86 ± 21 µM
Substance: CMP-Neu9NSydCl [compound 9]
